Consider nine compounds from ChEMBL document CHEMBL4219094, “Synthesis and evaluation of substituted 4-arylimino-3-hydroxybutanoic acids as potential HIV-1 integrase inhibitors” (Bioorg Med Chem Lett, 2018).

pIC50: −log10 of the molar value.

Series [1] addresses Human immunodeficiency virus type 1 integrase (Human immunodeficiency virus 1, UniProt Q7ZJM1). In words: Inhibition of HIV-1 subtype C integrase in presence of biotinylated DNA by colorimetric analysis.
Series [2] in a line: Cytotoxicity against HEK293 cells after 48 hrs by resazurin dye-based fluorescence assay. It counts as cell-based. The note with it: human.
In another series the test system is HEK293. Nature of the series: Cytotoxicity against HEK293 cells at 100 uM after 48 hrs by resorufin dye-based fluorescence assay relative to control. It counts as cell-based. The note with it: human, hek293, 48 h.

Human immunodeficiency virus type 1 integrase, sequence (Q7ZJM1 whole entry): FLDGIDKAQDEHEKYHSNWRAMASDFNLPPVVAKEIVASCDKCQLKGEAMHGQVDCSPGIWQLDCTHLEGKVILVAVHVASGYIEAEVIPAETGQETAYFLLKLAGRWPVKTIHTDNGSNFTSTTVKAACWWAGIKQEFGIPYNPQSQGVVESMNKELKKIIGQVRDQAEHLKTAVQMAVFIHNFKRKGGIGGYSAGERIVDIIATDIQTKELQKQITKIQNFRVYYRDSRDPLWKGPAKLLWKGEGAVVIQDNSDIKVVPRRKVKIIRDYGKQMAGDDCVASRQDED

In the case of `O=C(O)CC(O)/C=N/c1cc(Cl)cc(Cl)c1O` (configuration not stated), in series [1], the pIC50 was less than 4.00. The same compound yielded a CC50 at 48 h in series [2] of 101 µM.
On to `O=C(O)CC(O)/C=N/c1ccc(O)c(O)c1` (configuration not stated), for which the Activity result with HEK293 is recorded as “Non-Toxic”. Also, the pIC50 in series [1] was 4.41.
For `O=C(O)CC(O)/C=N/c1cc(Cl)cc(Br)c1O` (configuration not stated), the pIC50 in series [1] was less than 4.00. The compound further had a CC50 at 48 h in series [2] of 109 µM.
As to `O=C(O)CC(O)/C=N/c1ccccc1O` (configuration not stated), the Activity result with HEK293 is “Non-Toxic”. Moreover, the pIC50 in series [1] was less than 4.00.
Regarding `O=C(O)CC(O)/C=N/c1ccc(O)c(O)c1O` (configuration not stated), the Activity result with HEK293 is “Non-Toxic”. Further, the pIC50 in series [1] was 5.45.
Turning to `O=C(O)CC(O)/C=N/c1cc([N+](=O)[O-])ccc1O` (configuration not stated), the Activity result in the series with HEK293 was “Non-Toxic”. Moreover, the pIC50 in series [1] was 4.19.
For the compound `O=C(O)CC(O)/C=N/c1cccc(O)c1O` (configuration not stated), in the series with HEK293, the Activity result is “Non-Toxic”. In series [1], the pIC50 was 4.27.
On to `O=C(O)CC(O)/C=N/c1cc(Br)cc(Br)c1O` (configuration not stated), for which, in series [1], the pIC50 is 4.58. In addition, in series [2], the CC50 at 48 h was 104 µM.
`CC[C@H]1CN2CCc3cc(OC)c(OC)cc3[C@@H]2C[C@@H]1C[C@H]1NCCc2cc(OC)c(OC)cc21` [EMETINE] displayed a CC50 at 48 h in series [2] of 0.071 µM.
